Molecules are shown by their SMILES.

One data set is described as follows: in vitro. As to conditions: African green monkey.
The next data set relates to MERS-CoV. Kind of data set: microbe, parasite or virus in culture. The following applies: for EC50: Middle East respiratory syndrome-related coronavirus, Vero, 24 h. The format is cell-based.

On to `Cc1cccc(C)c1OCC(=O)N[C@@H](Cc1ccccc1)[C@@H](O)C[C@H](Cc1ccccc1)NC(=O)[C@H](Cc1ccc(F)cc1)N1CCCNC1=O` [Compound 7, (S)-N-((2S,4S,5S)-5-(2-(2,6-dimethylphenoxy)acetamido)-4-hydroxy-1,6-diphenylhexane-2-yl)-3-(4-fluorophenyl)-2-(2-oxotetrahydropyrimidin-1(2H)-yl)propanamide], for which the CC50 in “in vitro” was over 50 µM. Also, the “toxicity to host cells” value in the data set on vero cells (ATCC CCL-81) is on record as “minimal toxicity”. In the data set on MERS-CoV, the SI worked out at 23.96 and the EC50 was found to be 2.09 µM.
In the same order, the values of `Cc1cccc(C)c1OCC(=O)N[C@@H](Cc1ccccc1)[C@@H](O)C[C@H](Cc1ccccc1)NC(=O)C1(N2CCCNC2=O)CCCC1` [Compound 4, N-((2S,4S,5S)-5-(2-(2,6-dimethylphenoxy)acetamido)-4-hydroxy-1,6-diphenylhexan-2-yl)-1-(2-oxotetrahydropyrimidine-1 (2H)-yl) cyclopentanecarboxamide] are over 50 µM, “minimal toxicity”, 6.53 and 7.66 µM.
As to `Cc1cccc(C)c1OCC(=O)N[C@@H](Cc1ccccc1)[C@@H](O)C[C@H](Cc1ccccc1)NC(=O)[C@H](C(C)C)N1CCCNC1=O` [Positive control, Lopinavir, reference compound], the CC50 in the data set “in vitro” is over 50 µM. In the data set on MERS-CoV, the SI worked out at 4.78 and the EC50 came to 10.5 µM.
`Cc1cccc(C[C@@H](C(=O)N[C@@H](Cc2ccccc2)C[C@H](O)[C@H](Cc2ccccc2)NC(=O)COc2c(C)cccc2C)N2CCCNC2=O)c1` [Compound 5, (S)-N-((2S,4S,5S)-5-(2-(2,6-dimethylphenoxy)acetamido)-4-hydroxy-1,6-diphenylhexane-2-yl)-2-(2-oxotetrahydropyrimidin-1(2H)-yl)-3-(m-tolyl)propanamide]: the CC50 in “in vitro” was over 50 µM. Also, the “toxicity to host cells” value in the data set with vero cells (ATCC CCL-81) was “minimal toxicity”. Besides, in the data set with MERS-CoV, the SI stood at 17.91 and the midpoint of the response, the EC50, lay at 2.79 µM.
The corresponding values for `Cc1cccc(C)c1OCC(=O)N[C@@H](Cc1ccccc1)[C@@H](O)C[C@H](Cc1ccccc1)NC(=O)[C@H](Cc1ccc(C#N)cc1)N1CCCNC1=O` [Compound 9, (S)-3-(4-cyanophenyl)-N-((2S,4S,5S)-5-(2-(2,6-dimethylphenoxy)acetamido)-4-hydroxy-1,6-diphenylhexan-2-yl)-2-(2-oxotetrahydropyrimidin-1(2H)-yl)propanamide] are over 50 µM, “minimal toxicity”, 19.33 and 2.59 µM.
In turn, `Cc1cccc(C)c1OCC(=O)N[C@@H](Cc1ccccc1)[C@@H](O)C[C@H](Cc1ccccc1)NC(=O)[C@H](Cc1cccs1)N1CCCNC1=O` [Compound 10, (S)-N-((2S,4S,5S)-5-(2-(2,6-dimethylphenoxy)acetamido)-4-hydroxy-1,6-diphenylhexane-2-yl)-2-(2-oxotetrahydropyrimidin-1(2H)-yl)-3-(thiophen-2-yl)propenamide] came in with a CC50 in “in vitro” of over 50 µM. For the same molecule, the “toxicity to host cells” value in the data set on vero cells (ATCC CCL-81) is “minimal toxicity”. In the data set with MERS-CoV, this molecule displayed an SI of 15.06 and an EC50 of 3.32 µM.
Regarding `Cc1cccc(C)c1OCC(=O)N[C@@H](Cc1ccccc1)[C@@H](O)C[C@H](Cc1ccccc1)NC(=O)[C@H](Cc1ccccc1)N1CCCNC1=O` [Compound 1, (S)-N-((2S,4S,5S)-5-(2-(2,6-dimethylphenoxy)acetamido)-4-hydroxy-1,6-diphenylhexane-2-yl)-2-(2-oxotetrahydropyrimidin-1(2H)-yl)-3-phenylpropanamide], the CC50 in “in vitro” is over 50 µM. For the same molecule, in the data set on vero cells (ATCC CCL-81), the “toxicity to host cells” value is given as “minimal toxicity”. Further, in the data set on MERS-CoV, the SI amounted to 21.74 and the EC50 is 2.03 µM.
As to `Cc1cccc(C)c1OCC(=O)N[C@@H](Cc1ccccc1)[C@@H](O)C[C@H](Cc1ccccc1)NC(=O)[C@](C)(C(C)C)N1CCCNC1=O` [Compound 2, (S)-N-((2S,4S,5S)-5-(2-(2,6-dimethylphenoxy)acetamido)-4-hydroxy-1,6-diphenylhexane-2-yl)-2,3-dimethyl-2-(2-oxotetrahydropyrimidin-1(2H)-yl)butanamide], the CC50 in the data set “in vitro” was over 50 µM. In addition, the “toxicity to host cells” value in the data set on vero cells (ATCC CCL-81) is on record as “minimal toxicity”.
In the same order, the values of `Cc1cccc(C)c1OCC(=O)N[C@@H](Cc1ccccc1)[C@@H](O)C[C@H](Cc1ccccc1)NC(=O)[C@@](C)(C(C)C)N1CCCNC1=O` [Compound 3, (R)-N-((2S,4S,5S)-5-(2-(2,6-dimethylphenoxy)acetamido)-4-hydroxy-1,6-diphenylhexane-2-yl)-2,3-dimethyl-2-(2-oxotetrahydropyrimidin-1(2H)-yl)butanamide] are over 50 µM and “minimal toxicity”.
In turn, `Cc1cccc(C)c1OCC(=O)N[C@@H](Cc1ccccc1)[C@@H](O)C[C@H](Cc1ccccc1)NC(=O)[C@H](Cc1ccc(C(F)(F)F)cc1)N1CCCNC1=O` [Compound 8, (S)-N-((2S,4S,5S)-5-(2-(2,6-dimethylphenoxy)acetamido)-4-hydroxy-1,6-diphenylhexane-2-yl)-2-(2-oxotetrahydropyrimidin-1(2H)-yl)-3-(4-(trifluoromethyl)phenyl)propanamide] gave a CC50 in the data set “in vitro” of over 50 µM. In addition, in the data set with vero cells (ATCC CCL-81), the “toxicity to host cells” value is “minimal toxicity”. Further, in the data set on MERS-CoV, the SI stood at 40.88 and a half-maximal effect (EC50) was put at 1.22 µM.

These data come from patent US20220380320A1 (priority 2019, published 2022).
